The record followed here is patent US9862716B2, “TRKA kinase inhibitors, compositions and methods thereof” (Merck Sharp & Dohme Corp., priority 2014, dated 2018).

Each structure is given as a SMILES string.

In the assay the target is T1, human TrkA receptor (Homo sapiens, UniProt P04629).
T1 construct: host or cells: U2OS cells (PathHunter cell line)
T1 sequence (P04629 33-796): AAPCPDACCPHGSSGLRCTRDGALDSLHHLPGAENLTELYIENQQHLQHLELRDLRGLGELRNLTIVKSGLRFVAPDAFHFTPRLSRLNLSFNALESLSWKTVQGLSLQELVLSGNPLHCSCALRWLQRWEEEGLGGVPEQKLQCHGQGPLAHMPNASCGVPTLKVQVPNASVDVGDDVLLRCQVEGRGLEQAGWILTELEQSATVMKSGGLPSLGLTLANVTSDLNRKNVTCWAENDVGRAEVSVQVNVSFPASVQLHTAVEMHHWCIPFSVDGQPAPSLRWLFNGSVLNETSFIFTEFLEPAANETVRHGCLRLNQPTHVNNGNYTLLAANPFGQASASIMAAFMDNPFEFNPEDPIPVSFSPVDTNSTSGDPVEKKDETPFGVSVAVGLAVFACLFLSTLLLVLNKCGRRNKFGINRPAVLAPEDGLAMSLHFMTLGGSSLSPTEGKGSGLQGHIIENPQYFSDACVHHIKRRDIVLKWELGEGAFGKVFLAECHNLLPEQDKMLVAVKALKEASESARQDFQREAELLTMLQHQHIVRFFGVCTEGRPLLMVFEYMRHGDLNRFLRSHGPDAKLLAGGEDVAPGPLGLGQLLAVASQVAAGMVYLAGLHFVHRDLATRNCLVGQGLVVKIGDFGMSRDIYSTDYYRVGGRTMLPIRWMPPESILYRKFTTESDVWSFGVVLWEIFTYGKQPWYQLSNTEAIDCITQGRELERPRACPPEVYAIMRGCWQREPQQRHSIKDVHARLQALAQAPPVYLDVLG
The experiment in a line: DiscoverX PathHunter TrkA functional assay (NGF-stimulated U2OS cells). It is filed as cell-based. The following applies: U2OS cells expressing human TrkA-PK, Shc1-EA and p75NTR; compound 1 h, then NGF at ~80% of maximal response for 3 h; luminescence.
Procedure: TrkA functional activity was measured using a DiscoverX PathHunter assay. In this assay, U2OS cells express the human TrkA receptor as a fusion with the weakly complementing fragment of B-galactosidase, which DiscoverX calls “Prolink (PK)”; additionally, Shc1 is fused with a larger fragment, which is called “Enzyme Acceptor (EA)”. Activation of the TrkA receptor, upon NGF addition, results in the kinase domain being phosphorylated, resulting in subsequent recruitment of Shc1-EA protein. That recruitment results in an active B-galactosidase enzyme that is detected by addition of a chemiluminescent substrate. The human p75^NTR protein was also expressed as a co-receptor for NGF.
All reagents were purchased from DiscoverX, except for the receptor agonists (NGF, BDNF, NT3) which were purchased from Peprotech. Cells were expanded and frozen into cryovials, and stored in the vapor phase of liquid nitrogen, and thawed immediately before use. Thawed cells were added to a 384-well plate at 7500 cells/well, and allowed to incubate overnight. Compound at various concentrations was added the following morning and allowed to incubate on cells for 1 h. Then, NGF was added at a concentration sufficient to elicit ˜80% of a maximal response and allowed to incubate for 3 h at ambient temperature. DiscoverX PathHunter detection reagent was then added and the plate was further incubated for 1 h in the dark. The plate was then read via luminescence on the Perkin Elmer Envision.
Consider `CC(O)c1ccn2nc(-c3ccccc3)c(NC(=O)c3cc(-c4ccn(C)n4)c(C(F)(F)F)cc3F)c2c1` (single isomer, unassigned) [Compound 106, (R or S)-2-fluoro-N-[5-(1-hydroxyethyl)-2-phenylpyrazolo[1,5-a]pyridin-3-yl]-5-(1-methyl-1H-pyrazol-3-yl)-4-(trifluoromethyl) benzamide], for which the IC50 (usually the concentration at which inhibition is half-maximal) was 1.7 nM.

Regarding `CC(O)c1ccn2nc(-c3ccccc3)c(NC(=O)c3cc(-c4ccn(C)n4)c(C(F)(F)F)cc3F)c2c1` (single isomer, unassigned) [Compound 107, (R or S)-2-fluoro-N-[5-(1-hydroxyethyl)-2-phenylpyrazolo[1,5-a]pyridin-3-yl]-5-(1-methyl-1H-pyrazol-3-yl)-4-(trifluoromethyl) benzamide], the IC50 is 0.85 nM. Against the preceding compound, the IC50 is about 2-fold lower.

On to `CC(O)c1ccc2[nH]c(-c3ccccc3)c(NC(=O)c3cc(-c4ccn(C)n4)c(C(F)(F)F)cc3F)c2c1` (single isomer, unassigned) [Compound 112, (R or S)-2-fluoro-N-[5-(1-hydroxyethyl)-2-phenyl-1H-indol-3-yl]-5-(1-methyl-1H-pyrazol-3-yl)-4-(trifluoromethyl) benzamide], for which inhibition was half-maximal at 1.4 nM (IC50).

In the case of `CC(O)c1ccc2[nH]c(-c3ccccc3)c(NC(=O)c3cc(-c4ccn(C)n4)c(C(F)(F)F)cc3F)c2c1` (single isomer, unassigned) [Compound 113, (R or S)-2-fluoro-N-[5-(1-hydroxyethyl)-2-phenyl-1H-indol-3-yl]-5-(1-methyl-1H-pyrazol-3-yl)-4-(trifluoromethyl) benzamide], 1.7 nM corresponded to half-maximal inhibition (IC50).

Take `Cn1ccc(-c2cc(C(=O)Nc3c(-c4ccccc4)nc4cc(C5CCCN5)ccn34)ccc2C(F)(F)F)n1` (single isomer, unassigned) [Compound 114, (R or S)-3-(1-methyl-1H-pyrazol-3-yl)-N-(2-phenyl-7-pyrrolidin-2-ylimidazo[1,2-a]pyridin-3-yl)-4-(trifluoromethyl) benzamide]: the IC50 came to 15 nM.

Consider `O=C(Nc1c(-c2ccccc2)nc2ccccn12)c1ccc(OC(F)(F)F)cc1` [Compound 1, N-(2-phenylimidazo[1,2-a]pyridin-3-yl)-4-(trifluoromethoxy) benzamide], for which half-maximal inhibition (IC50) was put at 550 nM.

Consider `O=C(Nc1c(-c2ccccc2)nc2sccn12)c1ccc(C(F)(F)F)cc1F` [Compound 2, 2-fluoro-N-(6-phenylimidazo[2,1-b][1,3]thiazol-5-yl)-4-(trifluoromethyl) benzamide], for which 139 nM corresponded to half-maximal inhibition (IC50).

`Cn1ccc(-c2cc(C(=O)Nc3c(-c4ccccc4)nc4ncccn34)ccc2C(F)(F)F)n1` [Compound 3, 3-(1-methyl-1H-pyrazol-3-yl)-N-(2-phenylimidazo[1,2-a]pyrimidin-3-yl)-4-(trifluoromethyl) benzamide] registered an IC50 of 5.9 nM. This IC50 is about 24-fold lower than that of the compound before.

For `Cn1ccc(-c2cc(C(=O)Nc3c(-c4ccccc4)nc4ccccn34)ccc2C(F)(F)F)n1` [Compound 4, 3-(1-methyl-1H-pyrazol-3-yl)-N-(2-phenylimidazo[1,2-a]pyridin-3-yl)-4-(trifluoromethyl) benzamide], the IC50 was found to be 1.4 nM.

As to `Cn1ccc(-c2cc(C(=O)Nc3c(-c4ccccn4)nc4ccccn34)ccc2C(F)(F)F)n1` [Compound 5, 3-(1-methyl-1H-pyrazol-3-yl)-N-(2-pyridin-2-ylimidazo[1,2-a]pyridin-3-yl)-4-(trifluoromethyl) benzamide], inhibition was half-maximal at 12 nM (IC50).

In the case of `Cn1ccc(-c2cc(C(=O)Nc3c(-c4ccccc4)nc4cccnn34)ccc2C(F)(F)F)n1` [Compound 6, 3-(1-methyl-1H-pyrazol-3-yl)-N-(2-phenylimidazo[1,2-b]pyridazin-3-yl)-4-(trifluoromethyl) benzamide], it took 3.9 nM to reach half-maximal inhibition (IC50).

In turn, `CC(C)c1cccc2nc(-c3ccccc3)c(NC(=O)c3ccc(C(F)(F)F)cc3F)n12` [Compound 7, 2-fluoro-N-[5-(1-methylethyl)-2-phenylimidazo[1,2-a]pyridin-3-yl]-4-(trifluoromethyl) benzamide] registered an IC50 of 264 nM. Compared with the last compound, the IC50 is about 68-fold higher.
